What was measured:
Type in all cases: biochemical
A-Raf = molecular target: T1, A-Raf (Homo sapiens, UniProt P10398); experiment: Kinase activity assay, A-Raf; settings: Table 1a; read-out: activity toward kinase A-Raf, IC50
T1 sequence (P10398 1-606): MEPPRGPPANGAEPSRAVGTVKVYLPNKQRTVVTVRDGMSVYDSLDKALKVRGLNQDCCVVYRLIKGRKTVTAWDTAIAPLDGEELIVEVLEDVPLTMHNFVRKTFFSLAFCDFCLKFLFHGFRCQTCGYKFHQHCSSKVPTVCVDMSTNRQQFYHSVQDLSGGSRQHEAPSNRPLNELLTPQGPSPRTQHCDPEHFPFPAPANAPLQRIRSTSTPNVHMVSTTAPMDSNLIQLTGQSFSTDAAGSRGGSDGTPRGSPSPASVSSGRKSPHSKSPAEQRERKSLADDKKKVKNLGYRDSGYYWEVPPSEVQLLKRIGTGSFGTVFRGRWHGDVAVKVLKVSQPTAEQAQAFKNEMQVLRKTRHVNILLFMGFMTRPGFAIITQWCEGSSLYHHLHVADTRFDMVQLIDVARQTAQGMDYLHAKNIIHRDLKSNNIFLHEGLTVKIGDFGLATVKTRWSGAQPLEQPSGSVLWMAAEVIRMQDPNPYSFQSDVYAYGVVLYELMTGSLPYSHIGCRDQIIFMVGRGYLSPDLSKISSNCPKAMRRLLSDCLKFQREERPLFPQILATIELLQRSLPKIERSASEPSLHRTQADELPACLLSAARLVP
Source text: (§1) Assays for the activity of kinases, including, but not limited to, Fms, Kit, B-Raf, B-Raf V600E, c-Raf-1, and TrkA are known in the art, for example as described in US Patent Publication Number US20070032519 and U.S. patent application Ser. No. 11/473,347 (see also, PCT publication WO2007002433), the disclosures of which are hereby incorporated by reference with respect to such assays.

Kdr = Kdr (Homo sapiens, UniProt P35968); experiment: Kinase activity assay, Kdr; settings: Table 1i; read-out: activity toward kinase Kdr, IC50
Source text: as §1

B-Raf V600E = B-Raf V600E (Homo sapiens, UniProt P15056, V600E); experiment: Kinase activity assay, B-Raf V600E; settings: Table 1c; read-out: activity toward kinase B-Raf V600E, IC50
Chain of B-Raf V600E (P15056 whole entry V600E): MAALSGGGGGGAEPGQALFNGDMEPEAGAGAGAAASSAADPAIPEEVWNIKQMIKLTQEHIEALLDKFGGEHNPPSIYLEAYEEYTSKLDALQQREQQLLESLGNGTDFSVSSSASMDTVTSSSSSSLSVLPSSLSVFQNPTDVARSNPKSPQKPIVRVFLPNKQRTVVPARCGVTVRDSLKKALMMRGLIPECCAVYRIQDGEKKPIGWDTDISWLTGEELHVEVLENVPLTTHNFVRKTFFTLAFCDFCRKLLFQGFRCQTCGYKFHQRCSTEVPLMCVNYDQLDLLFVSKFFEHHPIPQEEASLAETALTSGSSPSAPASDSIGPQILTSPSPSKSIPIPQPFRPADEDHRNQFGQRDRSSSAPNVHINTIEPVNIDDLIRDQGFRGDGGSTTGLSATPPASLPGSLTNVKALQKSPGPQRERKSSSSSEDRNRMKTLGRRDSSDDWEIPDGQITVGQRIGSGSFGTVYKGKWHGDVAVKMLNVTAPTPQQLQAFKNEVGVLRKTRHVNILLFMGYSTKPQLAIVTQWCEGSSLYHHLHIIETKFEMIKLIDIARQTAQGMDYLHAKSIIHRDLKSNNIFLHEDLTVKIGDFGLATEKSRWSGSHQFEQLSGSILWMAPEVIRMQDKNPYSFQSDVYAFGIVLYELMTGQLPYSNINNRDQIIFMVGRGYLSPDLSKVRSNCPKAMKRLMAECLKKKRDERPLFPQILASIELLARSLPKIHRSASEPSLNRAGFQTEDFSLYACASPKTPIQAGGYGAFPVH
Source text: as §1

Flt-1 = Flt-1 (Homo sapiens, UniProt P17948); experiment: Kinase activity assay, Flt-1; settings: Table 1f; read-out: activity toward kinase Flt-1, IC50
Chain of Flt-1 (P17948 27-1338): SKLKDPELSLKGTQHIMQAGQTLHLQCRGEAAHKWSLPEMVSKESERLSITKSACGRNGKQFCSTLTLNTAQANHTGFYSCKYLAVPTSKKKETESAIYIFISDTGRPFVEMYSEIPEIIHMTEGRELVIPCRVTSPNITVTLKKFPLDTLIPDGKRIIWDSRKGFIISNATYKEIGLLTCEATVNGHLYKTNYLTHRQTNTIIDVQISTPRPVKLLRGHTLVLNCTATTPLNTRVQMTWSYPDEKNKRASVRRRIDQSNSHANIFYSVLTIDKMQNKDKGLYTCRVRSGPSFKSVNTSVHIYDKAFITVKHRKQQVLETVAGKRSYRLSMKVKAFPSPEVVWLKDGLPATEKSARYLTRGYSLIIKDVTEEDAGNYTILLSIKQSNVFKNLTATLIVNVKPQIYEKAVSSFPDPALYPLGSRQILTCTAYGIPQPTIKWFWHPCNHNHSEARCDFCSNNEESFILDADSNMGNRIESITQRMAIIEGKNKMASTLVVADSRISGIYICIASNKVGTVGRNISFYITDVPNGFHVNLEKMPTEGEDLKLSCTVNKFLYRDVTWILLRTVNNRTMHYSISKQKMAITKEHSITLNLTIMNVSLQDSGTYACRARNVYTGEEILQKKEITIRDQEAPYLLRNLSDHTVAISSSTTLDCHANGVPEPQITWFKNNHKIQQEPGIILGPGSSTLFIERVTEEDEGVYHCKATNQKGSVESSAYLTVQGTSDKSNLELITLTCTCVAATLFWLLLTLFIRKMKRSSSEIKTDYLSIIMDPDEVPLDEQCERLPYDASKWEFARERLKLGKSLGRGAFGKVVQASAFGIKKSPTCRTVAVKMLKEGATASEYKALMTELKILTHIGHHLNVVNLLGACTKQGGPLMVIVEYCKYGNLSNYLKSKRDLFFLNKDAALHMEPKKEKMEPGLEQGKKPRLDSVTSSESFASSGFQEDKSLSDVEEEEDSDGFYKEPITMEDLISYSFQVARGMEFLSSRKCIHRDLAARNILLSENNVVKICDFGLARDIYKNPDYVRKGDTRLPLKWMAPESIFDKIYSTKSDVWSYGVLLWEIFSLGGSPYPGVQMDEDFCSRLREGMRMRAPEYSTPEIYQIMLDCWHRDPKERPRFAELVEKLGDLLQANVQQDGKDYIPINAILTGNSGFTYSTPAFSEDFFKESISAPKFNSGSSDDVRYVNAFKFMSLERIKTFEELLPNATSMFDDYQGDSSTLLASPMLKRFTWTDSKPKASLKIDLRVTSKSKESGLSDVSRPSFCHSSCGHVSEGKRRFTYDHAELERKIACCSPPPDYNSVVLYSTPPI
Source text: as §1

TEC = molecular target: T2, TEC (Homo sapiens, UniProt P42680); experiment: Kinase activity assay, TEC; settings: Table 1l; read-out: activity toward kinase TEC, IC50
T2 sequence (P42680 1-631): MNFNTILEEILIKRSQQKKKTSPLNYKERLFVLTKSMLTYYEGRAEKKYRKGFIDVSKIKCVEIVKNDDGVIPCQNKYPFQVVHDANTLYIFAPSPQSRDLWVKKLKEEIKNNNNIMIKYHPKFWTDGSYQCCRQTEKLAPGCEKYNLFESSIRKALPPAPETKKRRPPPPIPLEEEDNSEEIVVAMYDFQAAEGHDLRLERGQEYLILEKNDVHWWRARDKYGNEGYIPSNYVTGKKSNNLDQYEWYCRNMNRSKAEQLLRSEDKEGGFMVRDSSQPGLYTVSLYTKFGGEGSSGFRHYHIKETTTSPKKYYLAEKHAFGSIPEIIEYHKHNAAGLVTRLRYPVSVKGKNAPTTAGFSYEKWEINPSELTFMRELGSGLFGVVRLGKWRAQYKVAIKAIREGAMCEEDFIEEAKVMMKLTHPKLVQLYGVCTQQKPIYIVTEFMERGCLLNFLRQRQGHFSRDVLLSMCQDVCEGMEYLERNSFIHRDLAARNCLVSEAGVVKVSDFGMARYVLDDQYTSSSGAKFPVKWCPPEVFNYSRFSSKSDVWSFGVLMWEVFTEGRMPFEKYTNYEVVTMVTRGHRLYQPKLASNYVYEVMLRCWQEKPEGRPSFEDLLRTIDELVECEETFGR
Source text: as §1

TrkA = TrkA (Homo sapiens, UniProt P04629); experiment: Kinase activity assay, TrkA; settings: Table 1m; read-out: activity toward kinase TrkA, IC50
Chain of TrkA (P04629 33-796): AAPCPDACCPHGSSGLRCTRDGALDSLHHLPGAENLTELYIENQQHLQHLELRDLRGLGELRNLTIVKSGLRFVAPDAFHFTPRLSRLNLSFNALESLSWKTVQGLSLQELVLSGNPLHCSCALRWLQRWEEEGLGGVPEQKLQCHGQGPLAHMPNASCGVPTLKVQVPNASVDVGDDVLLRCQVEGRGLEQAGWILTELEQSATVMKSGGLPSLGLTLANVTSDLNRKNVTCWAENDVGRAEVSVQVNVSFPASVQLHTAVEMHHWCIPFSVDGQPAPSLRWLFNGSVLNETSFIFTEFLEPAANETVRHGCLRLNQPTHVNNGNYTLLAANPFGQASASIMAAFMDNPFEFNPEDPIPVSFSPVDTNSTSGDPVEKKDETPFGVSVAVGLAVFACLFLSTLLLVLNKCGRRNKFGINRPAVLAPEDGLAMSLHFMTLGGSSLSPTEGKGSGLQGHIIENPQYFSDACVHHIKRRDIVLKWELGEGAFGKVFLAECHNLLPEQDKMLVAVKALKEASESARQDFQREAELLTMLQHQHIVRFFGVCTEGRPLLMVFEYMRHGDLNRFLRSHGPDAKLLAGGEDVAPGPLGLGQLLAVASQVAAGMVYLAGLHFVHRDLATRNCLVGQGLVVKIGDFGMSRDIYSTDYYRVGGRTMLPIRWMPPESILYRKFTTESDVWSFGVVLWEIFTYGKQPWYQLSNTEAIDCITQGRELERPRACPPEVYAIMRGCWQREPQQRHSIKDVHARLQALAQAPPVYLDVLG
Source text: as §1

Fms = Fms (Homo sapiens, UniProt P07333); experiment: Kinase activity assay, Fms; settings: Table 1h; read-out: activity toward kinase Fms, IC50
Chain of Fms (P07333 20-972): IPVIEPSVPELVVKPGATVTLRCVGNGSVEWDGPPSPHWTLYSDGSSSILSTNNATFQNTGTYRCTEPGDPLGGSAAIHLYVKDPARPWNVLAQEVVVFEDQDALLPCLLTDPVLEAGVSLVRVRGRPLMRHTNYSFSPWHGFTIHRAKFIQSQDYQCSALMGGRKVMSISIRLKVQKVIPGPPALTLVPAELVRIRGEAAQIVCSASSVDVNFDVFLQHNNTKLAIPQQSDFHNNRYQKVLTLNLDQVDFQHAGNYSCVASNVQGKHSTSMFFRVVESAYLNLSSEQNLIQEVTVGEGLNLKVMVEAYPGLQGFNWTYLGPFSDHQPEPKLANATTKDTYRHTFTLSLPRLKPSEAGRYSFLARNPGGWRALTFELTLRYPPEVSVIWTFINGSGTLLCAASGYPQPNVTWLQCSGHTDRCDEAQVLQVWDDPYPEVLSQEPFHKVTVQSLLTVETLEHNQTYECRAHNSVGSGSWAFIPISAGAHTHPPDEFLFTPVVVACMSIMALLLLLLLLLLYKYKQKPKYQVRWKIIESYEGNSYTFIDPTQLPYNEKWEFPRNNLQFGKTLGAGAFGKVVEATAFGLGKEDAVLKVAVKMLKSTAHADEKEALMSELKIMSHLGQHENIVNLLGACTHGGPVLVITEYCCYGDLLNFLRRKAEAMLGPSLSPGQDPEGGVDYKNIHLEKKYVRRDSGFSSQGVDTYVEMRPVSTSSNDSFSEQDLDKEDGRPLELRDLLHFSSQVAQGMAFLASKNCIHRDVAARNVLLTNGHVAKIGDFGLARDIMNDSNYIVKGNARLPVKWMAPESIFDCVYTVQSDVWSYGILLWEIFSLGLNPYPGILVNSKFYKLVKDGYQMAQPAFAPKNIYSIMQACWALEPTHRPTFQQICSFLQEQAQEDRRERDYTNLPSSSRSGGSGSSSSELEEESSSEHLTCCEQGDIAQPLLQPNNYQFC
Source text: as §1

Kit = Kit (Homo sapiens, UniProt P10721); experiment: Kinase activity assay, Kit; settings: Table 1j; read-out: activity toward kinase Kit, IC50
Chain of Kit (P10721 26-976): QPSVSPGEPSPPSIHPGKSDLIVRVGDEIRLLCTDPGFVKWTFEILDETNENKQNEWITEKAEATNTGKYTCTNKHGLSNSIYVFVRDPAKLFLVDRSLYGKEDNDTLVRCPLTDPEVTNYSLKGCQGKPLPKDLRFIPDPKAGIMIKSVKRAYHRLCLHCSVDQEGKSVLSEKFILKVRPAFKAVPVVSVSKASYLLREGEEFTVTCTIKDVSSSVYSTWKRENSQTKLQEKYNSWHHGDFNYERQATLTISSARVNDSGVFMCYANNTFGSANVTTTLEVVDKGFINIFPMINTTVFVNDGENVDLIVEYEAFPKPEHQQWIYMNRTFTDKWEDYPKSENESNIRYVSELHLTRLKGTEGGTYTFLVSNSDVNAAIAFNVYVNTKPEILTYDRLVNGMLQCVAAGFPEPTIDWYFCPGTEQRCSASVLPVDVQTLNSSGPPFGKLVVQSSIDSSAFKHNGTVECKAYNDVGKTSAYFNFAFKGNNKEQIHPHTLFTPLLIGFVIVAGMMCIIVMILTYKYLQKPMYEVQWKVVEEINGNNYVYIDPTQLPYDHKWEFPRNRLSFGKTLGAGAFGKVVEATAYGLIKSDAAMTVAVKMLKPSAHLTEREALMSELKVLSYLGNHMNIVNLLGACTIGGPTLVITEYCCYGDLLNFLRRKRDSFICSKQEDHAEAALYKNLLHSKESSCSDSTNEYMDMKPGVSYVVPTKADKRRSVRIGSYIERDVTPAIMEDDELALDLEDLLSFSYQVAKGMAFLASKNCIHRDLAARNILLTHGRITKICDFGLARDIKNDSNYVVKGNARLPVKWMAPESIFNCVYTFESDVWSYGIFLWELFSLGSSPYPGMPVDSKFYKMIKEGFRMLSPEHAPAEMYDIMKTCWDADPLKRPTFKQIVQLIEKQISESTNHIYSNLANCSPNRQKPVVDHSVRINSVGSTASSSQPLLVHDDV
Source text: as §1

Flt-3 = molecular target: T3, Flt-3 (Homo sapiens, UniProt P36888); experiment: Kinase activity assay, Flt-3; settings: Table 1g; read-out: activity toward kinase Flt-3, IC50
T3 sequence (P36888 27-993): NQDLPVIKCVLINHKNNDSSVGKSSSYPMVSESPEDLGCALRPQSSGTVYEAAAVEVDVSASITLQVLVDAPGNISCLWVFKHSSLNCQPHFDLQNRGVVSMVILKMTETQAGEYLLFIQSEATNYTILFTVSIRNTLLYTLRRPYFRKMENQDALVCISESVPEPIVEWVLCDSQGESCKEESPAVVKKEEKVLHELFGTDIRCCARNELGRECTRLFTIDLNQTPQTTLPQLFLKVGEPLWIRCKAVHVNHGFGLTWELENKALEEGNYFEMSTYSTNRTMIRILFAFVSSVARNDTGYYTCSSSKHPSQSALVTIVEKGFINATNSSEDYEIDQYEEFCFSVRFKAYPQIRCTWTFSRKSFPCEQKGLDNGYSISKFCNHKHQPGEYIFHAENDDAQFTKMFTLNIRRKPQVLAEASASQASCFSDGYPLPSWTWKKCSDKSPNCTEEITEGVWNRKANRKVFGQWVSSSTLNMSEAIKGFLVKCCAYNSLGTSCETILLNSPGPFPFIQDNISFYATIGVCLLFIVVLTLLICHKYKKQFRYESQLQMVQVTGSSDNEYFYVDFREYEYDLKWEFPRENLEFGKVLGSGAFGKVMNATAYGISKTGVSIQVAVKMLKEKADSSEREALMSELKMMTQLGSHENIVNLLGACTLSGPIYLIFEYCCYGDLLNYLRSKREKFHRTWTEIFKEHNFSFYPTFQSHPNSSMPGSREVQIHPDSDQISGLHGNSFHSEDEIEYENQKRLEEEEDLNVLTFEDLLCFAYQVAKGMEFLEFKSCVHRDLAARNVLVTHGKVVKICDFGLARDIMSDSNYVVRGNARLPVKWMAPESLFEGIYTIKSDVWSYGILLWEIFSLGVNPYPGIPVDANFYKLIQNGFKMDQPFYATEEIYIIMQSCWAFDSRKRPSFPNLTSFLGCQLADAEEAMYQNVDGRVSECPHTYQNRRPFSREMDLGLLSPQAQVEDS
Source text: as §1

Measured: IC50

Clc1ccc(CNc2ccc(Cc3c[nH]c4ncncc34)cn2)cc1 [P-0001, (4-Chloro-benzyl)-[5-(7H-pyrrolo[2,3-d]pyrimidin-5-ylmethyl)-pyridin-2-yl]-amine]
≤ 10 µM: all assays above

Clc1ccccc1CNc1ccc(Cc2c[nH]c3ncncc23)cn1 [P-0003, (2-Chloro-benzyl)-[5-(7H-pyrrolo[2,3-d]pyrimidin-5-ylmethyl)-pyridin-2-yl]-amine]
not listed: Kdr
≤ 10 µM: all other assays above

Source: patent publication US8158636B2, “Compounds and methods for kinase modulation, and indications therefor” (Plexxikon Inc., priority 2008, dated 2012)
